For 1 substance, Kd results are on record in publication PMC7074905, “Multivalent Lactose–Ferrocene Conjugates Based on Poly (Amido Amine) Dendrimers and Gold Nanoparticles as Electrochemical Probes for Sensing Galectin-3” (Nanomaterials, 2020).

The experiment has as its target T1, Human galectin-3 (Gal-3) (Homo sapiens, UniProt P17931).
T1 construct: gene LGALS3; mainly monomeric in solution
Kind of experiment: isothermal titration calorimetry. Type of experiment: binding. As to conditions: 20 mM phosphate pH 7.2, 150 mM NaCl, 25 °C; equal and independent sites model, n = 1.00 buffer and model; tetravalent ligand, n = 0.19 ± 0.05, cross-linking; read-out: K.10^-4 (M^-1). An excerpt:
isothermal titration calorimetry on Human galectin-3 (Gal-3)
For orientation: Isothermal titration calorimetry measures the heat released or taken up as one component is titrated into another.

pKd: −log10 of the molar value.

T1 sequence (P17931 2-250): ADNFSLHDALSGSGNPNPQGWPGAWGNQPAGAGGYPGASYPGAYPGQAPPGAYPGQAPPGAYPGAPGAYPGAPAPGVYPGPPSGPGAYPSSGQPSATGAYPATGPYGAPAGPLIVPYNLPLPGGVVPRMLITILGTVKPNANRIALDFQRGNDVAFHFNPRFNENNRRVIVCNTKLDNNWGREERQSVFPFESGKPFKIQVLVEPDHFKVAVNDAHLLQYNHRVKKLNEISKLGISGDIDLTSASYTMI

For the substance “G0-PAMAM-(COCH2CH2TACH2FcCH2TACH2Lac)4 [compound 12]”, the pKd is 5.50.
